The term IC50 denotes the concentration that inhibits the measured activity by half. Usually Ki stands for a measure of affinity in units of concentration, obtained from inhibition or displacement.

IC50 and Ki data for four compounds are collected here from patent US20070129330A1, “1,3-Diaza-dibenzo[e,h]azulenes for the treatment of central nervous system diseases and disorders” (Pliva-Istrazivacki Institut d.o.o., priority 2003, published 2007).

The target of one experiment is T1, 5-HT2A receptor (Homo sapiens, UniProt P28223).
T1 construct: expressed in transfected cells; host or cells: CHO-K1 (alternatively human cortex tissue)
The experiment is described as follows: radioligand binding assay for 5-HT2A receptor ([3H]-ketanserin competitive binding). The settings on record: human cortex or recombinant 5-HT2A receptor expressed in CHO-K1 cells; for IC50: read-out: binding affinity to 5-HT2A serotonin receptor expressed as IC50 value; for Ki: read-out: binding affinity to 5-HT2A serotonin receptor, Ki value. The method, then: (§1) The effect of the compounds of the present invention on the neurochemical steady state was determined by in vitro investigations such as a radionuclide-marked radioligand binding assay for 5-HT2A (Bonhaus D. W. Br. J. Pharmacol. 1995, 115:622; Saucier C. J. Neurochem. 1997, 68:1998) and 5-HT2C receptors (Wolf W.A. J. Neurochem. 1997, 69:1449), in vitro binding assay for the σ1 receptor (Thomson W. and Donn R. Arthritis Res. 2002, 4: 302-306) and by in vivo investigations in a tail suspension test (Vogel H. G. and Vogel W. H. Drug Discovery and Evaluation Pharmacological Assays, Springer 1997, 304), in amphetamine-induced hyperlocomotion in mice (Millan M. J. et al, 1998 J. Pharmacol. Exp. Ther. 287: 167-186), in a forced swim test in mice (Porsolt R. D. et al. Arch. Int. Pharmacodyn. 1977, 229:327-336), in meta-chlorophenyl piperazine (m-CPP) test on rats (Drug Dev. Res. 1989, 18:119-144), and in apomorphine, tryptamine and norepinephrine (ATN) test in rats (Arch. Int. Pharmacodyn. 1977, 227:238-253).
(§2) A small concentration of a radioligand having a great affinity for binding to a receptor was incubated with a tissue sample enriched with a certain receptor (1-5 mg of tissue) in a buffered medium (0.2-5 mL). Recombinant human HT2A and HT2C receptors were expressed in CHO-K1 or COS-7 cells and were also used for competitive binding. During incubation the radioligand bound to the receptor. When a binding balance was achieved, the receptors to which the radioligand was bound were separated from those to which said ligand was not bound, and the radioactivity of the receptor/radioligand complex was measured. The interaction of the tested compounds with receptors was tested in competitive binding experiments. Various concentrations of tested compounds were added to the incubation mixture containing a prepared tissue enriched with corresponding receptors and the radioligand. The radioligand binding was inhibited by the test compounds proportionally to the affinity of a certain compound for the receptor and to the concentration of the compound.
(§3) The radioligand used for the determination of binding to 5-HT2A receptor was [^3H]-ketanserin and the tissue used was human cortex or recombinant 5-HT2A receptor expressed in CHO-K1 cells. The radioligand used for the determination of binding to 5-HT2C receptor was [^3H]-mesulergine and the tissue used was choroid plexus or recombinant 5-HT2C receptor expressed in CHO-K1 cells.
(§4) It is anticipated that similar results will be observed for other compounds of the invention.

The target in another experiment is T2, 5-HT2C receptor (Homo sapiens, UniProt P28335).
T2 construct: expressed in transfected cells; host or cells: CHO-K1 (alternatively choroid plexus tissue)
T2 sequence (P28335 33-458): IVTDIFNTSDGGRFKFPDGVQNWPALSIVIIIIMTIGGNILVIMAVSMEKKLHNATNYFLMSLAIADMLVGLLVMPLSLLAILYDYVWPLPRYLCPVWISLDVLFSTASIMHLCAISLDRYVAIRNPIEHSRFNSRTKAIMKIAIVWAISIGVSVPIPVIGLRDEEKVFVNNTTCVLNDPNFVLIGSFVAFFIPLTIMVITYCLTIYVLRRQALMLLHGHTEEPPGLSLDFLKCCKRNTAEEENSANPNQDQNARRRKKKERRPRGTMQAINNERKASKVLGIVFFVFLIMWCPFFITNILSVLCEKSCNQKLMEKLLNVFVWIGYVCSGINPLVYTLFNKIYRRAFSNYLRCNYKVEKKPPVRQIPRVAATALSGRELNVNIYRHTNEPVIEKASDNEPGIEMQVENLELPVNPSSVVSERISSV
Kind of experiment: radioligand binding assay for 5-HT2C receptor ([3H]-mesulergine competitive binding). The settings on record: choroid plexus or recombinant 5-HT2C receptor expressed in CHO-K1 cells; for IC50: read-out: binding affinity to 5-HT2C serotonin receptor expressed as IC50 value; for Ki: read-out: binding affinity to 5-HT2C serotonin receptor, Ki value. The method, then:
as §1, §2, §3, §4

SMILES strings stand for the structures. Some results are limits rather than exact numbers.

T1 sequence (P28223 whole entry): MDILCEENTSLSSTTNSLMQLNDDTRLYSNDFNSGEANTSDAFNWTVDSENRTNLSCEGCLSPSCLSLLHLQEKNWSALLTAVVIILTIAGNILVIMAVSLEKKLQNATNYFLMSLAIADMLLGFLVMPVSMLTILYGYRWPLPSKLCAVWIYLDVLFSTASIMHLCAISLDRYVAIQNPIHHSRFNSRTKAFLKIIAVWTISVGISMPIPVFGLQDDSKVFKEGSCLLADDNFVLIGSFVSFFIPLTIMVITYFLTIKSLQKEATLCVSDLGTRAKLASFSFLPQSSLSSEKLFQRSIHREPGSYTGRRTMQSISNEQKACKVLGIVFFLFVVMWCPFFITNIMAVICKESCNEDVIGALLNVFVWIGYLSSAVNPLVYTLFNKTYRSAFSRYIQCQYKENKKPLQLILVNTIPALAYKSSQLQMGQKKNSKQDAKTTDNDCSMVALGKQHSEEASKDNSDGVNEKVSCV

`Clc1ccc2c(c1)-c1[nH]cnc1-c1ccccc1O2` [11chloro-1H-8-oxa-1,3-diaza-dibenzo[e,h]azulene]: at 5-HT2A receptor, the IC50 is less than 0.2 µM and the Ki is less than 0.1 µM. Further, at 5-HT2C receptor, the IC50 was less than 0.2 µM and the inhibition constant (Ki) is less than 0.1 µM.
As for `CN(C)CCCOCc1nc2c([nH]1)-c1cc(Cl)ccc1Sc1ccccc1-2` [[3-(11-chloro-1H-8-thia-1,3-diaza-dibenzo[e,h]azulen-2-ylmethoxy)-propyl]-dimethyl-amine], the half-maximal inhibitory concentration (IC50) on 5-HT2A receptor and on 5-HT2C receptor was less than 0.2 µM in each case. Also, the inhibition constant (Ki) at 5-HT2A receptor and on 5-HT2C receptor was less than 0.1 µM each time.
Consider `CN(C)CCOCc1nc2c(n1C)-c1ccccc1Sc1ccccc1-2` [dimethyl-[2-(1-methyl-1H-8-thia-1,3-diaza-dibenzo[e,h]azulen-2-ylmethoxy)-ethyl]-amine], for which, on 5-HT2A receptor, the concentration for half-maximal inhibition (IC50) is less than 0.2 µM and the Ki was less than 0.1 µM. For the same compound, on 5-HT2C receptor, the IC50 was less than 0.2 µM and the inhibition constant (Ki) was less than 0.1 µM.
In the case of `CN(C)CCCOc1ccccc1-c1nc2c([nH]1)-c1ccccc1Sc1ccccc1-2` [dimethyl-{3-[2-(1H-8-thia-1,3-diaza-dibenzo[e,h]azulen-2-yl)-phenoxy]-propyl}-amine], the half-maximal inhibitory concentration (IC50) on 5-HT2A receptor and at 5-HT2C receptor was less than 0.2 µM in each case. The inhibitory constant (Ki) on 5-HT2A receptor and on 5-HT2C receptor was less than 0.1 µM throughout.
